Measured values reported in ChEMBL document CHEMBL2375306, “Antimicrobial peptides containing unnatural amino acid exhibit potent bactericidal activity against ESKAPE pathogens” (Bioorg Med Chem, 2013).
≈ marks a conversion by molar mass, not a printed value. Numbered stars: 1 amine (or outer) side, 2 acyl side, 3 side chain; on linkers, the order of the positions; unused ones are H or OH. Square brackets hold non-standard residues; d marks the D form. Peptide text beside a SMILES is read from it. * marks the point of attachment. ξ: configuration not given here. Pro(3ξ,4ξ-(CH2)4) = O=C(O)[C@H]1NCC2CCCCC21; Phe(4-F) = N[C@@H](Cc1ccc(F)cc1)C(=O)O; Ethylenediamine = C(CN[*:2])N[*:1]; Tic = O=C(O)[C@@H]1Cc2ccccc2CN1; X1 = CC(=O)NC(=O)[C@H](CN)N*; Dap = NC[C@H](N)C(=O)O; GABA = NCCCC(=O)O; βAla = NCCC(=O)O

Legend:
Type in all cases: functional
Klebsiella pneumoniae = assay: Antibacterial activity against Klebsiella pneumoniae BAMS clinical isolate 07-18 after 24 hrs by broth microdilution method; details: BAMS clinical isolate 07-18, 24 h
Acinetobacter baumannii = assay: Antibacterial activity against Acinetobacter baumannii WRAIR clinical isolate 13 after 24 hrs by broth microdilution method; details: WRAIR clinical isolate 13, 24 h
Klebsiella aerogenes = assay: Antibacterial activity against Enterobacter aerogenes after 24 hrs by broth microdilution method
Staphylococcus aureus = assay: Antibacterial activity against methicillin-sensitive Staphylococcus aureus UAMS-1 after 24 hrs by broth microdilution method; details: UAMS-1, 24 h
Enterococcus faecium = assay: Antibacterial activity against Enterococcus faecium MMC4 after 24 hrs by broth microdilution method; details: MMC4, 24 h
Pseudomonas aeruginosa = assay: Antibacterial activity against Pseudomonas aeruginosa PAO1 after 24 hrs by broth microdilution method; details: PAO1, 24 h

MIC (Klebsiella pneumoniae)	MIC (Acinetobacter baumannii)	MIC (Klebsiella aerogenes)	MIC (Staphylococcus aureus)	MIC (Enterococcus faecium)	MIC (Pseudomonas aeruginosa)	SMILES	MBC (Klebsiella pneumoniae)	MBC (Acinetobacter baumannii)	MBC (Klebsiella aerogenes)	MBC (Staphylococcus aureus)	MBC (Enterococcus faecium)	MBC (Pseudomonas aeruginosa)
25 µg/mL (≈ 10.1 µM)	6.25 µg/mL (≈ 2.52 µM)	50 µg/mL (≈ 20.1 µM)	50 µg/mL (≈ 20.1 µM)	12.5 µg/mL (≈ 5.03 µM)	50 µg/mL (≈ 20.1 µM)	CC(=O)NCC(=O)N[C@@H](Cc1ccccc1)C(=O)N1Cc2ccccc2C[C@H]1C(=O)N1CC2CCCCC2[C@H]1C(=O)NCC(=O)N[C@@H](CCCCN)C(=O)N1Cc2ccccc2C[C@H]1C(=O)N1CC2CCCCC2[C@H]1C(=O)NCC(=O)N[C@@H](Cc1ccccc1)C(=O)N1Cc2ccccc2C[C@H]1C(=O)N1CC2CCCCC2[C@H]1C(=O)NCC(=O)N[C@@H](CCCCN)C(=O)N1Cc2ccccc2C[C@H]1C(=O)N[C@@H](CCCCN)C(=O)N[C@@H](CCCCN)C(=O)N[C@@H](CCCCN)C(=O)N[C@@H](CCCCN)C(=O)NCCN (stereo partly drawn) (Ac-GF[Tic][Pro(3ξ,4ξ-(CH2)4)]GK[Tic][Pro(3ξ,4ξ-(CH2)4)]GF[Tic][Pro(3ξ,4ξ-(CH2)4)]GK[Tic]KKKK-Ethylenediamine)	50 µg/mL (≈ 20.1 µM)	6.25 µg/mL (≈ 2.52 µM)	50 µg/mL (≈ 20.1 µM)	> 100 µg/mL	25 µg/mL (≈ 10.1 µM)	100 µg/mL (≈ 40.3 µM)
100 µg/mL (≈ 39.2 µM)	12.5 µg/mL (≈ 4.9 µM)	> 100 µg/mL	> 100 µg/mL	12.5 µg/mL (≈ 4.9 µM)	> 100 µg/mL	CC(=O)NCCCC(=O)N[C@@H](Cc1ccccc1)C(=O)N1Cc2ccccc2C[C@H]1C(=O)N1CC2CCCCC2[C@H]1C(=O)NCCCC(=O)N[C@@H](CCCCN)C(=O)N1Cc2ccccc2C[C@H]1C(=O)N1CC2CCCCC2[C@H]1C(=O)NCCCC(=O)N[C@@H](Cc1ccccc1)C(=O)N1Cc2ccccc2C[C@H]1C(=O)N1CC2CCCCC2[C@H]1C(=O)NCCCC(=O)N[C@@H](CCCCN)C(=O)N1Cc2ccccc2C[C@H]1C(=O)N[C@@H](CCCCN)C(=O)N[C@@H](CCCCN)C(=O)N[C@@H](CCCCN)C(=O)N[C@@H](CCCCN)C(N)=O (stereo partly drawn) (Ac-[GABA]F[Tic][Pro(3ξ,4ξ-(CH2)4)][GABA]K[Tic][Pro(3ξ,4ξ-(CH2)4)][GABA]F[Tic][Pro(3ξ,4ξ-(CH2)4)][GABA]K[Tic]KKKK-NH2)	100 µg/mL (≈ 39.2 µM)	25 µg/mL (≈ 9.79 µM)	> 100 µg/mL	> 100 µg/mL	25 µg/mL (≈ 9.79 µM)	> 100 µg/mL
12.5 µg/mL (≈ 5.38 µM)	12.5 µg/mL (≈ 5.38 µM)	25 µg/mL (≈ 10.8 µM)	> 100 µg/mL	50 µg/mL (≈ 21.5 µM)	25 µg/mL (≈ 10.8 µM)	CC(=O)NCCC(=O)N[C@@H](Cc1ccc(F)cc1)C(=O)N1Cc2ccccc2C[C@H]1C(=O)N1CC2CCCCC2[C@H]1C(=O)NCCC(=O)N[C@@H](CN)C(=O)N1Cc2ccccc2C[C@H]1C(=O)N1CC2CCCCC2[C@H]1C(=O)NCCC(=O)N[C@@H](Cc1ccc(F)cc1)C(=O)N1Cc2ccccc2C[C@H]1C(=O)N1CC2CCCCC2[C@H]1C(=O)NCCC(=O)N[C@@H](CN)C(=O)N1Cc2ccccc2C[C@H]1C(=O)N[C@@H](CN)C(=O)N[C@@H](CN)C(=O)N[C@@H](CN)C(=O)N[C@@H](CN)C(=O)NC(C)=O (stereo partly drawn) (Ac-[βAla][Phe(4-F)][Tic][Pro(3ξ,4ξ-(CH2)4)][βAla][Dap][Tic][Pro(3ξ,4ξ-(CH2)4)][βAla][Phe(4-F)][Tic][Pro(3ξ,4ξ-(CH2)4)][βAla][Dap][Tic][Dap][Dap][Dap]-X1)	25 µg/mL (≈ 10.8 µM)	25 µg/mL (≈ 10.8 µM)	25 µg/mL (≈ 10.8 µM)	> 100 µg/mL	> 100 µg/mL	50 µg/mL (≈ 21.5 µM)
100 µg/mL (≈ 43.2 µM)	12.5 µg/mL (≈ 5.4 µM)	> 100 µg/mL	100 µg/mL (≈ 43.2 µM)	25 µg/mL (≈ 10.8 µM)	> 100 µg/mL	CC(=O)NCC(=O)N[C@@H](Cc1ccccc1)C(=O)N1Cc2ccccc2C[C@H]1C(=O)N1CC2CCCCC2[C@H]1C(=O)NCC(=O)N[C@@H](CCCCN)C(=O)N1Cc2ccccc2C[C@H]1C(=O)N1CC2CCCCC2[C@H]1C(=O)NCC(=O)N[C@@H](Cc1ccccc1)C(=O)N1Cc2ccccc2C[C@H]1C(=O)N1CC2CCCCC2[C@H]1C(=O)NCC(=O)N[C@@H](CCCCN)C(=O)N1Cc2ccccc2C[C@H]1C(=O)N[C@@H](CCCCN)C(=O)N[C@@H](CCCCN)C(=O)N[C@@H](CCCCN)C(N)=O (stereo partly drawn) (Ac-GF[Tic][Pro(3ξ,4ξ-(CH2)4)]GK[Tic][Pro(3ξ,4ξ-(CH2)4)]GF[Tic][Pro(3ξ,4ξ-(CH2)4)]GK[Tic]KKK-NH2)	> 100 µg/mL	50 µg/mL (≈ 21.6 µM)	> 100 µg/mL	> 100 µg/mL	100 µg/mL (≈ 43.2 µM)	> 100 µg/mL
